Source: patent US8735620B2, “Processes for preparing (E)-styrylbenzylsulfone compounds and uses thereof for treating proliferative disorders” (priority 2008, dated 2014)
pIC50: −log10 of the molar value. Read-outs that look alike come from different tables or passages of the source.

Columns and labels:
Format in all cases: cell-based
[1] = tested on: BT20 (human breast tumor cell line); assay: Cytotoxicity assay (trypan blue exclusion, 96 h), BT20; conditions: BT20, 96 h treatment
Description: (§1) Tissue Culture and Reagents: Paclitaxel was purchased from Sigma. Cell lines were purchased from ATCC. Cell lines were routinely grown in DMEM or RPM1 (CellGro) supplemented with 10% fetal bovine serum (Atlas) and 1 unit/mL penicillin-streptomycin (Gibco).

[2] = tested on: DU145 (human prostate tumor cell line); assay: Cytotoxicity assay (trypan blue exclusion, 96 h), DU145; conditions: DU145, 96 h treatment; read-out: DU145 IC50
Description: as §1

[3] = tested on: H157 (human lung tumor cell line); assay: Cytotoxicity assay (trypan blue exclusion, 96 h), H157; conditions: H157, 96 h treatment; read-out: H157 IC50
Description: as §1

[4] = tested on: DLD1 (human colorectal tumor cell line); assay: Cytotoxicity assay (trypan blue exclusion, 96 h), DLD1; conditions: DLD1, 96 h treatment; read-out: DLD1 IC50
Description: as §1

[5] = tested on: BT20, DU145, H157 and DLD1 cell lines; assay: In vitro cytotoxicity, four human tumor cell lines (SAR discussion); conditions: for activity in cell-killing assays: at the highest concentration (20 μM) tested
Description: A number of tumor cell lines were tested using a dose response end point assay system. The cells were grown in either DMEM or RPMI supplemented with 10% fetal bovine serum and 1 unit/mL Penicillin-Streptomycin solution. The tumor cells were plated into 6 well dishes at a cell density of 1.0×10^5 cells/mL/well and compounds were added 24 h later at various concentrations. Cell counts were determined from duplicate wells after 96 h of treatment. The total number of viable cells was determined by trypan blue exclusion.
Following the synthesis of this group of compounds, their in vitro cytotoxicity was assessed using four different human tumor cell lines derived from human breast (BT20), prostate (DU145), lung (H157) and colorectal (DLD1) cancers. […] In a majority of the compounds described here, a methoxy group was kept constant at the 4th position on the aromatic ring of the benzyl moiety.

In the case of `COc1ccc(CS(=O)(=O)/C=C/c2ccc(OC)c(OC)c2)cc1` [6j, (E)-3,4-Dimethoxystyryl-4-Methoxybenzyl sulfone], the pIC50 [1] was under 4.70, the pIC50 [2] was under 4.70 and the pIC50 [3] was under 4.70. For the same compound, the pIC50 [4] was under 4.70.
Work on `COc1ccc(CS(=O)(=O)/C=C/c2cc(OC)c(OC)c(OC)c2)cc1O` [6y, (E)-3,4,5-Trimethoxystyryl-3-Hydroxy-4-Methoxybenzyl Sulfone] yielded a pIC50 [1] of 5.12, a pIC50 [2] of 5.30 and a pIC50 [3] of 5.00. It also gave a pIC50 [4] of 5.00.
For `COc1cc(OC)c(/C=C/S(=O)(=O)Cc2ccc(Cl)cc2)c(OC)c1` [6ae, (E)-2,4,6-trimethoxystyryl-4-chlorobenzyl sulfone], the pIC50 [1] was 5.00, the pIC50 [2] was 5.12 and the “cytotoxic activity, SAR statement” value [5] was “substantially lost activity”.
With `COc1ccc(CS(=O)(=O)/C=C/c2ccc(C)cc2C)cc1` [6h, (E)-2,4-Dimethylstyryl-4-Methoxybenzyl sulfone] the pIC50 [2] was 4.92 and the “cytotoxic activity, SAR statement” value [5] was “low level of cytotoxicity”.
In the case of `COc1ccc(CS(=O)(=O)/C=C/c2c(OC)cc(F)cc2OC)cc1` [6v, (E)-2,6-Dimethoxy-4-fluorostyryl-4-Methoxybenzyl sulfone], the pIC50 [1] was 6.12, the pIC50 [2] was 6.30 and the pIC50 [3] was 6.30. The pIC50 [4] was 6.12 and the “cytotoxic activity, SAR statement” value [5] was “either a reduced level or total loss of activity”.
In the case of `COc1cc(OC)c(/C=C/S(=O)(=O)Cc2ccc(C(=O)O)cc2)c(OC)c1` [6ah, (E)-2,4,6-trimethoxystyryl-4-Carboxybenzyl sulfone], the pIC50 [2] was 5.00, the pIC50 [3] was 4.76 and the “cytotoxic activity, SAR statement” value ([5]; four human tumor cell lines) was “substantially lost activity”.
For `COc1ccc(CS(=O)(=O)/C=C/c2c(C)cccc2C)cc1` [6l, (E)-2,6-Dimethylstyryl-4-Methoxybenzyl sulfone], the pIC50 [1] was under 4.70, the pIC50 [2] was under 4.70 and the pIC50 [3] was under 4.70. For the same compound, the pIC50 [4] was under 4.70 and the “cytotoxic activity, SAR statement” value [5] was “low level of cytotoxicity”.
Compound `COc1cc(OC)c(/C=C/S(=O)(=O)Cc2cc(OC)c(OC)c(OC)c2)c(OC)c1` [6ac, (E)-2,4,6-trimethoxystyryl-3,4,5-Trimethoxybenzyl sulfone] has a pIC50 [1] of under 4.70, a pIC50 [2] of under 4.70 and a pIC50 [3] of under 4.70. The pIC50 [4] was under 4.70.
Compound `COc1ccc(CS(=O)(=O)/C=C/c2c(C)cc(C)cc2C)cc1` [6w, (E)-2,4,6-Trimethylstyryl-4-Methoxybenzyl sulfone] has a pIC50 [1] of under 4.70, a pIC50 [2] of under 4.70 and a pIC50 [3] of under 4.70. The pIC50 [4] was under 4.70 and the “cytotoxic activity, SAR statement” value [5] was “inactive”.
Work on `COc1ccc(CS(=O)(=O)/C=C/c2c(OC)cccc2OC)cc1` [6m, (E)-2,6-Dimethoxystyryl-4-Methoxybenzyl sulfone] yielded a pIC50 [1] of 6.40, a pIC50 [2] of 6.60 and a pIC50 [3] of 6.15. The pIC50 [4] was 6.15 and the “fold enhancement of activity compared to other disubstituted methoxy sulfones (6j, 6n, 6o and 6p)” value ([5]; cytotoxicity assays) was “greater than 40 fold”.
`COc1ccc(CS(=O)(=O)/C=C/c2cc(OC)cc(OC)c2)cc1` [6p, (E)-3,5-Dimethoxystyryl-4-Methoxybenzyl sulfone] was tested, and the pIC50 [1] was under 4.70, the pIC50 [2] was under 4.70 and the pIC50 [3] was under 4.70. The pIC50 [4] was under 4.70.
Compound `COc1ccc(/C=C/S(=O)(=O)Cc2ccc(OC)cc2)cc1` [6a, (E)-4-Methoxystyryl-4-Methoxybenzyl sulfone] has a pIC50 [1] of under 4.70, a pIC50 [2] of under 4.70 and a pIC50 [3] of under 4.70. The pIC50 [4] was under 4.70 and the “cytotoxic activity, SAR statement” value [5] was “gradually decreased the activity”.
`COc1ccc(CS(=O)(=O)/C=C/c2ccc([N+](=O)[O-])cc2)cc1` [6d, (E)-4-Nitrostyryl-4-Methoxybenzyl sulfone] showed a pIC50 [1] of 5.30, a pIC50 [2] of 5.12 and a pIC50 [3] of 5.12. For the same compound, the pIC50 [4] was 5.30 and the “cytotoxic activity, SAR statement” value ([5]; four human tumor cell lines) was “gradually decreased the activity”.
With `COc1cc(OC)c(/C=C/S(=O)(=O)Cc2ccc(OC(F)(F)F)cc2)c(OC)c1` [6x, (E)-2,4,6-Trimethoxystyryl-4-Trifluoromethoxybenzyl sulfone] the pIC50 [1] was 5.52, the pIC50 [2] was 5.40 and the pIC50 [3] was 5.22. The pIC50 [4] was 5.40.
In the case of `COc1ccc(CS(=O)(=O)/C=C/c2cc(OC)c(OC)c(OC)c2)cc1` [6t, (E)-3,4,5-Trimethoxystyryl-4-Methoxybenzyl sulfone], the pIC50 [1] was under 4.70, the pIC50 [2] was under 4.70 and the pIC50 [3] was under 4.70. The pIC50 [4] was under 4.70 and the “activity in cell-killing assays” value [5] was “totally inactive”.
For `COc1ccc(CS(=O)(=O)/C=C/c2cc(C)cc(C)c2)cc1` [6k, (E)-3,5-Dimethylstyryl-4-Methoxybenzyl sulfone], the pIC50 [1] was under 4.70, the pIC50 [2] was under 4.70 and the pIC50 [3] was under 4.70. The pIC50 [4] was under 4.70 and the “cytotoxic activity, SAR statement” value [5] was “low level of cytotoxicity”.
For `COc1ccc(CS(=O)(=O)/C=C/c2c(OC)cc(O)cc2OC)cc1O` [6z, (E)-2,6-Dimethoxy-4-hydroxystyryl-3-Hydroxy-4-Methoxybenzyl Sulfone], the pIC50 [1] was 6.60, the pIC50 [2] was 6.30 and the pIC50 [3] was 6.30. The pIC50 [4] was 6.30.
`COc1cc(OC)c(/C=C/S(=O)(=O)Cc2ccc(C#N)cc2)c(OC)c1` [6ag, (E)-2,4,6-trimethoxystyryl-4-Cyanobenzyl sulfone] was tested, and the pIC50 [1] was 4.90, the pIC50 [2] was 5.12 and the “cytotoxic activity, SAR statement” value [5] was “substantially lost activity”.
In the case of `COc1cc(OC)c(/C=C/S(=O)(=O)Cc2ccc(OC)c(OC)c2OC)c(OC)c1` [6ad, (E)-2,4,6-Trimethoxystyryl-2,3,4-Trimethoxybenzyl sulfone], the pIC50 [2] was 4.90.
For `COc1cc(OC)c(/C=C/S(=O)(=O)Cc2ccc([N+](=O)[O-])cc2)c(OC)c1` [6af, (E)-2,4,6-trimethoxystyryl-4-Nitrobenzyl sulfone], the “cytotoxic activity, SAR statement” value ([5]; four human tumor cell lines) was “substantially lost activity”.
`COc1ccc(CS(=O)(=O)/C=C/c2c(OC)cc(O)cc2OC)cc1` [6u, (E)-2,6-Dimethoxy-4-hydroxystyryl-4-Methoxybenzyl sulfone] showed a pIC50 [1] of under 4.70, a pIC50 [2] of under 4.70 and a pIC50 [3] of under 4.70. For the same compound, the pIC50 [4] was under 4.70 and the “cytotoxic activity, SAR statement” value ([5]; four human tumor cell lines) was “either a reduced level or total loss of activity”.
`COc1ccc(CS(=O)(=O)/C=C/c2ccccc2OC)cc1` [6f, (E)-2-Methoxystyryl-4-Methoxybenzyl sulfone] showed a pIC50 [1] of 5.30, a pIC50 [2] of 5.46 and a pIC50 [3] of 5.30. The pIC50 [4] was 5.12 and the “cytotoxic activity, SAR statement” value ([5]; four human tumor cell lines) was “partially recovered the lost activity”.
In the case of `COc1ccc(CS(=O)(=O)/C=C/c2cc(OC)c(OC)cc2OC)cc1` [6q, (E)-2,4,5-Trimethoxystyryl-4-Methoxybenzyl sulfone], the pIC50 [1] was under 4.70, the pIC50 [2] was under 4.70 and the pIC50 [3] was under 4.70. For the same compound, the pIC50 [4] was under 4.70 and the “activity in cell-killing assays” value [5] was “totally inactive”.
For `COc1ccc(CS(=O)(=O)/C=C/c2ccc(N)cc2)cc1` [6e, (E)-4-Aminostyryl-4-Methoxybenzyl sulfone], the pIC50 [1] was under 4.70, the pIC50 [2] was under 4.70 and the pIC50 [3] was under 4.70. For the same compound, the pIC50 [4] was under 4.70 and the “cytotoxic activity, SAR statement” value [5] was “gradually decreased the activity”.
With `COc1ccc(CS(=O)(=O)/C=C/c2ccc(F)c(OC)c2)cc1` [6i, (E)-4-Fluoro-3-methoxystyryl-4-Methoxybenzylsulfone] the pIC50 [2] was 5.00 and the “cytotoxic activity, SAR statement” value ([5]; four human tumor cell lines) was “loss of activity”.
`COc1ccc(CS(=O)(=O)/C=C/c2ccc(OC)cc2OC)cc1` [6n, (E)-2,4-Dimethoxystyryl-4-Methoxybenzyl sulfone] showed a pIC50 [1] of under 4.70, a pIC50 [2] of under 4.70 and a pIC50 [3] of under 4.70. It also gave a pIC50 [4] of under 4.70.
For `COc1ccc(CS(=O)(=O)/C=C/c2cc(OC)ccc2OC)cc1` [6o, (E)-2,5-Dimethoxystyryl-4-Methoxybenzyl sulfone], the pIC50 [1] was under 4.70, the pIC50 [2] was under 4.70 and the pIC50 [3] was under 4.70. It also gave a pIC50 [4] of under 4.70.
`COc1ccc(CS(=O)(=O)/C=C/c2ccc(OC)c(OC)c2OC)cc1` [6r, (E)-2,3,4-Trimethoxystyryl-4-Methoxybenzyl sulfone] showed a pIC50 [1] of under 4.70, a pIC50 [2] of under 4.70 and a pIC50 [3] of under 4.70. The pIC50 [4] was under 4.70 and the “activity in cell-killing assays” value [5] was “totally inactive”.
For `COc1ccc(CS(=O)(=O)/C=C/c2ccc(F)cc2)cc1` [6b, (E)-4-Fluorostyryl-4-Methoxybenzyl sulfone], the pIC50 [1] was 5.82, the pIC50 [2] was 5.90 and the pIC50 [3] was 5.60. For the same compound, the pIC50 [4] was 5.70 and the “cytotoxic activity, SAR statement” value [5] was “moderate cytotoxic activity”.
`COc1ccc(CS(=O)(=O)/C=C/c2ccc(F)cc2Cl)cc1` [6g, (E)-2-Chloro-4-fluorostyryl-4-Methoxybenzyl sulfone] showed a pIC50 [1] of 5.60, a pIC50 [2] of 5.70 and a pIC50 [3] of 5.60. For the same compound, the pIC50 [4] was 5.40 and the “cytotoxic activity, SAR statement” value [5] was “retained cytotoxic activity”.
For `COc1cc(OC)c(/C=C/S(=O)(=O)Cc2ccc(O)cc2)c(OC)c1` [6ai, (E)-2,4,6-trimethoxystyryl-4-Hydroxybenzyl sulfone], the pIC50 [2] was 5.12 and the “cytotoxic activity, SAR statement” value ([5]; four human tumor cell lines) was “substantially lost activity”.
`COc1ccc(CS(=O)(=O)/C=C/c2ccc(Cl)cc2)cc1` [6c, (E)-4-Chlorostyryl-4-Methoxybenzyl sulfone] was tested, and the pIC50 [1] was 5.70, the pIC50 [2] was 5.60 and the pIC50 [3] was 5.46. For the same compound, the pIC50 [4] was 5.52 and the “cytotoxic activity, SAR statement” value [5] was “gradually decreased the activity”.
